Patent publication US10010612B2 (Indivior UK Limited, priority 2007, dated 2018)

Experiments:
[1] = Risperidone release from ATRIGEL implants in rats (implant retrieval; 24-hour burst, 14-day and 28-day studies); type: in vivo, Sprague-Dawley rats; conditions: 28 days
Method: The retrieved implants and tissue were placed in a −86° C. freezer for at least 1 hour. The frozen samples were lyophilized for at least 4 hours. The dry samples were minced with scissors, which were cleaned after each sample to minimize cross-contamination. The samples were minced until powder-like. Approximately 5 mL of 70:30 dimethylsulfoxide/methanol with 1% polyethyleneimine extraction solvent was added to each sample. The samples were mixed overnight at about 200 rpm at 37° C. on the orbital shaker. The samples were sonicated for 10 minutes. 1.5 mL of the extract was loaded into a 3 mL lure lock syringe and filtered through a 0.2 μm pore size filter into a clean test tube. 1 mL of the filtrate was placed into a clean test tube and 4 mL of 50:50 acetonitrile/H2O was added. The test tube was vortexed for 30 seconds. About 2 mL of the solution was loaded into a 3 mL lure lock syringe and filtered into an High Performance Liquid Chromatography vial.

[2] = Calculated risperidone release and plasma levels in dogs from in vitro release (in vitro to in vivo correlation); conditions: suggested by calculated release and apomorphine data
[3] = limit of solubility
[4] = powder in polypropylene syringes, 5.8 to 31 KGy
Method: The eight formulations prepared for testing were sterilized in glass vials and gamma resistant polypropylene copolymer syringes using various dose levels of irradiation.
The dose level was 30 to 33 KGy for each of the samples.
Syringes and glass vials obtained from the gamma radiation testing were analyzed with the control formulations.
These were loaded into gamma-irradiation polypropylene syringes and capped.

Cc1nc2n(c(=O)c1CCN1CCC(c3noc4cc(F)ccc34)CC1)CCCC2 [Risperidone, 4-[2-[4-(6-fluorobenzo[d]isoxazol-3-yl)-1-piperidyl]ethyl]-3-methyl-2,6-diazabicyclo[4.4.0]deca-1,3-dien-5-one]
stability of risperidone in ATRIGEL implants [1]: stable in ATRIGEL® implants for 28 days
minimum daily dose of risperidone needed in dogs for a biological response [2]: about 0.6 mg
solubility in N-methyl-2-pyrrolidone [3]: up to 5 % by weight
color after gamma irradiation [4]: turned beige at the lowest level of irradiation
